The values below come from patent US12076315B2 (Clear Creek Bio, Inc., priority 2020, dated 2024).

The conditions of this series: for Stability of the polymorphic form under ambient conditions (temperature and humidity): unstable forms convert to Pattern C; for Stability of the polymorphic form under ambient conditions (temperature and humidity) / Time after which the polymorph converts to Pattern C: sodium salt; for Comments: stability of the polymorph: Table 3, solid polymorph of brequinar sodium salt on storage.

“Also recorded” adds a separate entry of the source. Like-named read-outs stand apart in the source and are kept apart here.

For `Cc1c(-c2ccc(-c3ccccc3F)cc2)nc2ccc(F)cc2c1C(=O)[O-].[Na+]` [Pattern A, 6-Flouro-2-(2′-fluoro-1,1′-biphenyl-4-yl)-3-methyl-4-quinolinecarboxylic acid sodium salt], the “Stability of the polymorphic form under ambient conditions (temperature and humidity)” value (from here on “Stability of the polymorphic form”) was “metastable”.
For `Cc1c(-c2ccc(-c3ccccc3F)cc2)nc2ccc(F)cc2c1C(=O)[O-].[Na+]` [Pattern B, 6-Flouro-2-(2′-fluoro-1,1′-biphenyl-4-yl)-3-methyl-4-quinolinecarboxylic acid sodium salt], the “Comments: stability of the polymorph” value is on record as “hydrate KF 4.8% unstable,”; the “Stability of the polymorphic form” value was “unstable”. Further, the “Time after which the polymorph converts to Pattern C” value (“Time” below) (at ambient condition) is “convert to Pattern C after 4 days”.
Consider `Cc1c(-c2ccc(-c3ccccc3F)cc2)nc2ccc(F)cc2c1C(=O)[O-].[Na+]` [Pattern C, 6-Flouro-2-(2′-fluoro-1,1′-biphenyl-4-yl)-3-methyl-4-quinolinecarboxylic acid sodium salt], for which, for the setting “listed as polymorphic form C”, the “Stability of the polymorphic form” value is given as “stable; also recorded: most stable”.
For `Cc1c(-c2ccc(-c3ccccc3F)cc2)nc2ccc(F)cc2c1C(=O)[O-].[Na+]` [Pattern D, 6-Flouro-2-(2′-fluoro-1,1′-biphenyl-4-yl)-3-methyl-4-quinolinecarboxylic acid sodium salt], the “Stability of the polymorphic form” value is given as “unstable”. The “Time” value (at ambient condition) is on record as “C after 3 days at ambient”.
Take `Cc1c(-c2ccc(-c3ccccc3F)cc2)nc2ccc(F)cc2c1C(=O)[O-].[Na+]` [Pattern E, 6-Flouro-2-(2′-fluoro-1,1′-biphenyl-4-yl)-3-methyl-4-quinolinecarboxylic acid sodium salt]: the “Stability of the polymorphic form” value is listed as “unstable”. Also, the “Time” value (closed cap storage) is on record as “Pattern C after 1 week”.
As for `Cc1c(-c2ccc(-c3ccccc3F)cc2)nc2ccc(F)cc2c1C(=O)[O-].[Na+]` [Pattern F, 6-Flouro-2-(2′-fluoro-1,1′-biphenyl-4-yl)-3-methyl-4-quinolinecarboxylic acid sodium salt], the “Stability of the polymorphic form” value is “unstable”. Further, under “closed cap storage”, the “Time” value was “Pattern C after 1 week”.
`Cc1c(-c2ccc(-c3ccccc3F)cc2)nc2ccc(F)cc2c1C(=O)[O-].[Na+]` [Pattern G, 6-Flouro-2-(2′-fluoro-1,1′-biphenyl-4-yl)-3-methyl-4-quinolinecarboxylic acid sodium salt]: the “Comments: stability of the polymorph” value is 15.3%), unstable, convert; the “Stability of the polymorphic form” value was “unstable”. Further, for the setting “at ambient condition”, the “Time” value is on record as “to Pattern C after 2 weeks”.
In the case of `Cc1c(-c2ccc(-c3ccccc3F)cc2)nc2ccc(F)cc2c1C(=O)[O-].[Na+]` [Pattern I, 6-Flouro-2-(2′-fluoro-1,1′-biphenyl-4-yl)-3-methyl-4-quinolinecarboxylic acid sodium salt], the “Comments: stability of the polymorph” value is “KF 7.3%, unstable,”; the “Stability of the polymorphic form” value is listed as “unstable”. Moreover, under “at ambient condition”, the “Time” value is recorded as 2 days at ambient condition.
On to `Cc1c(-c2ccc(-c3ccccc3F)cc2)nc2ccc(F)cc2c1C(=O)[O-].[Na+]` [Pattern J, 6-Flouro-2-(2′-fluoro-1,1′-biphenyl-4-yl)-3-methyl-4-quinolinecarboxylic acid sodium salt], for which the “Comments: stability of the polymorph” value is recorded as “Unstable, convert to Pattern”; the “Stability of the polymorphic form” value is given as “unstable”. Moreover, the “Time” value (closed cap storage) is listed as “C after 2 weeks (closed cap”.
